Laboratory results reported in patent publication US20180214440A1, “ORAL COMPOSITION” (HELPERBY THERAPEUTICS LIMITED, priority 2015, published 2018).

Tested on: log phase S. aureus
Test: Time-kill studies for 240 minutes, Example 3
Type: cell-based
Conditions: alone at 0.01% w/v, FIG. 6
Description: FIGS. 4, 5 and 6 contain the results of the time-kill studies then carried out against log phase S. aureus for 240 minutes (4 hours).
These formulations included chlorhexidine digluconate at either 0.06% w/v, 0.04% w/v, 0.03% w/v or 0.015% w/v.
Corsodyl® Daily Defence mouthwash 0.06% is a commercially available product manufactured by GlaxoSmithKline which contains 0.06% w/v chlorhexidine digluconate.
The time to zero values for each of the FIGS. 4 to 6 are shown below in Table 4.

## Cc1nc2ccc(Oc3ccccc3)cc2c2c1CCN2CCc1ccccc1 [HT61, 4-methyl-8-phenoxy-1-(2-phenylethyl)-2,3-dihydro-1H-pyrrolo[3,2-c]quinoline]
  antimicrobial activity against log phase S. aureus: does not have significant antimicrobial activity
